Assay [1] deals with barcoded HIV NL-HABC. The assay is described as follows: Kick and kill: SUW133 and NK cells in NL-HABC-infected mice on ART, then ART interruption. The format is in vivo, TKO-BLT mice. The method, then: To determine whether combining a robust LRA with NK cells would effectively diminish the viral reservoir, as NK cells might eliminate cells induced to express virus due to the LRA activity, the following was performed. BLT mice were infected with NL-HABC, followed by ART to halt productive infection (FIG. 21, FIG. 64). Once mice were suppressed on ART, a subset of mice received a single intraperitoneal injection of 2 μg of SUW133 per mouse to reverse latency, followed by an intravenous injection of 5×10^6 allogeneic human NK cells eight hours later. Reactivation and killing of activated infected cells was allowed to occur while the mice were maintained on ART. ART was then discontinued, and mice were concurrently administered one more intravenous injection of 5×10^6 NK cells. A subset of control mice received SUW133, but no NK cell injections. All remaining control mice received DMSO as a vehicle control instead of SUW133. A subset of the mice receiving DMSO also received NK cell injections. Plasma viral loads were monitored after ART interruption for 12.1 weeks (FIG. 22). In these experiments, TKO-BLT mice, which can be robustly infected with HIV and are less susceptible to GVHD compared to NSG-BLT, were used and allowed monitoring the mice after ART interruption for a longer interval.
RNA was extracted from the barcoded virus supernatant using QIAamp Viral RNA Mini Kit (Qiagen) and from cells using RNeasy MiniKit (Qiagen). cDNA was generated using SuperScript IV First-Strand Synthesis Kit (Invitrogen). The same amount of input RNA that was used for viral load measurement was also used for cDNA synthesis for barcode analysis. The barcode region was amplified by hemi-nested PCR using Phusion High-Fidelity DNA Polymerase (ThermoFisher Scientific). Each RNA molecule was tagged with a Primer ID using methods in the art. Primer ID removal and cDNA purification was performed using an Purelink Quick PCR Purification Kit (Invitrogen) and methods in the art. […] Deep sequencing was performed with Illumina HiSeq3000 PE150. Sequencing depth was 10-fold higher than viral genome copies. Raw sequencing reads were de-multiplexed using the six-nucleotide ID. Sequencing error within the barcode region was corrected by filtering out low quality reads (quality score<30) and un-matched base-pairs between forward and reverse reads. PrimerIDs were used to correct sequencing errors. The frequency of Primer ID reads followed a bi-modal distribution (FIG. 53). The Primer IDs were filtered using the frequency cutoff between the Poisson distribution of errors and normal distribution of real Primer IDs. For each Primer ID, the most frequently observed barcode was called. Similar barcodes were then grouped into clusters. […]

For assay [2], the system named is HIV. As to conditions: cited from earlier work.

“Also recorded” adds a separate entry of the source.

For the compound `C=C1C[C@H]2C[C@]3(O)O[C@H](C[C@@H](O)CC(=O)O[C@@H](CO)C[C@@H]4C/C(=C\C(=O)OC)[C@H](OC(=O)CCCCCCC)[C@@](O)(O4)C(C)(C)/C=C/[C@@H](C1)O2)C[C@H](OC(C)=O)C3(C)C` [SUW133], the “delay to rebound after ART interruption (Kaplan-Meier, log-rank)” value in assay [1] (combination vs other groups (P=0.012 vs DMSO, 0.0037 vs SUW133, 0.09 vs NK), single agents vs DMSO (P=0.59, 0.47)) is “did not demonstrate a significant delay in rebound”. Besides, in assay [1] (deep sequencing of rebounding viral RNA, DMSO alone 4.7), the “mean unique barcodes per mouse” value came out at 4.1. In addition, in assay [1] (five days after administration of SUW133), the “CD69 expression on peripheral CD4+ T cells in the blood” value is recorded as “significant increase; also recorded: significantly elevated”. In assay [1] (monitored about 12 weeks), the “rebound viremia during the lengthened interval of ART interruption” value is reported as “eventually rebound; also recorded: rebounded”. Further, the “replication-competent virus from splenocytes in ex vivo cultures” value in assay [2] (SUW133-treated mice, prior studies) is reported as “generated replication-competent virus”. For the same compound, in assay [2] (SUW133 alone, prior studies), the “delay of rebound viremia after ART interruption” value is listed as “up to two to four weeks”. Also, the “time of maximal CD69 expression on CD4+ T cells in vivo” value in assay [2] (post-SUW133 injection, previous report) is listed as “approximately one to two days”. In addition, in assay [2] (post-injection, previous report), the “time CD69 can be detected on CD4+ T cells in vivo” value is recorded as “up to nine days”. Also, the “CD4+ T cell activation and latency reversal in vivo” value in assay [2] (single administration) is “activated CD4^+ T cells and reversed latency in vivo”.

(Values after patent publication US20240226155A1, “Methods and Products for Reducing HIV Reservoirs” (The Regents of the University of California, priority 2023, published 2024).)
